Data on 2 compounds can be found in US20150141367A1, “MODULATION OF GROWTH OF BIFIDOBACTERIA USING A COMBINATION OF OLIGOSACCHARIDES FOUND IN HUMAN MILK” (NESTEC S.A., priority 2011, published 2015).

SMILES strings stand for the structures.

The test system of experiment [1] is Bifidobacterium Breve ATCC 15700. In words: Growth of bifidobacteria in RCM without glucose, optical density at 595 nm over 30 hours. The format is cell-based. How it is done:
(§1) Reinforced Clostridia Medium (RCM) was used for cultivating the bifidobacteria. RCM without glucose was used as a control medium. RCM is a well-known medium for cultivating and enumerating anaerobes, which was first formulated by Hirsch and Grinstead, J. Dairy Res., 21:101 (1954). The test ingredients were 2′-fucosyllactose, 6′-sialyllactose and 3′-sialyllactose dissolved in the control medium at the following concentrations: 1 mg/ml 2′-fucosyllactose; 1 mg/ml 6′-sialyllactose; and, 2 mg/ml 3′-sialyllactose. The bifidobacteria were separately grown overnight anaerobically in RCM, and were then measured and diluted to an optical density of 0.1 as measured by absorbance spectroscopy at 595 nm, and were then further diluted ten-fold to make a working stock. For each test, 50 μl of working stock was added to each well of a 96 well plate containing either 200 μl of control medium (48 wells) or 200 μl test ingredient solution (48 wells). The plate was grown anaerobically for 30 hours and optical density was read at abs 595 nm every 15 minutes. The values for like wells were averaged and plotted over time (FIGS. 1, 3, and 5-7), and the area under the curve (AUC) was calculated over the 30-hour period (FIGS. 2 and 4).

The test system of experiment [2] is Bifidobacterium Infantis ATCC 15697. The description is as above. The class given is cell-based. The conditions noted are these: for growth in wells containing the test ingredient vs control medium: abs 595 nm; for effect on the growth of Bifidobacterium infantis (summary statement): summary in description. How it is done:
as §1

Regarding `CC(=O)N[C@H]1[C@H]([C@H](O)[C@H](O)CO)O[C@@](O[C@H]2[C@@H](O)[C@@H](CO)O[C@@H](O[C@H]3[C@H](O)[C@@H](O)C(O)O[C@@H]3CO)[C@@H]2O)(C(=O)O)C[C@@H]1O` (stereo partly drawn) [3′-sialyllactose], the “growth in wells containing the test ingredient vs control medium” value is reported as “significantly greater” in experiment [1] (2 mg/ml 3′-sialyllactose, after grown for 6 hours, abs 595 nm, FIG. 6) and “significantly greater” in experiment [2] (2 mg/ml 3′-sialyllactose, after grown for 8 hours, FIG. 7). The “effect on the growth of Bifidobacterium breve (summary statement)” value in experiment [1] (summary in description) is “stimulates the growth”. Moreover, the “effect on the growth of Bifidobacterium infantis (summary statement)” value in experiment [2] is “stimulates the growth”.
As to `CC(=O)N[C@H]1[C@H]([C@H](O)[C@H](O)CO)O[C@@](OC[C@H]2O[C@@H](O[C@H]3[C@H](O)[C@@H](O)[C@H](O)O[C@@H]3CO)[C@H](O)[C@@H](O)[C@H]2O)(C(=O)O)C[C@@H]1O` [6′-sialyllactose], the “growth in wells containing the test ingredient vs control medium” value in experiment [2] (1 mg/ml 6′-sialyllactose, after grown for 12 hours, FIG. 5) is on record as “significantly greater”. Besides, the “effect on the growth of Bifidobacterium infantis (summary statement)” value in experiment [2] is “stimulates the growth”.
